Laboratory results as given in patent US20220238900A1, “All Natural Redox Flow Battery Utilizing Indigo Carmine And Derivatives Thereof” (Northeastern University, priority 2019, published 2022).
In brackets after ≈: the same amount, converted by molar mass. Several values for one entry are separate records, joined by “and”; a condition that tells them apart may be missing. Equal values may be shown once.

Assays:
[1] = Three-electrode half-cell cyclic voltammetry
Experimental: Cyclic voltammetry experiments were performed using a Biologic SP150 potentiostat controlled by Biologic EC-Lab software.

physchem = experiment: physchem
Excerpt: FIG. 1A illustrates the natural source of the indigo dye. The most natural product from which indigo is obtained includes indican (genus indigofera plants) and isatan (woad plants or isatis tinctoria) in tropical and moderate climate zones, respectively.^[19] Irrespective of their source, the chemistry of the dye extraction involves soaking the leaves of the plants in water to facilitate the fermentation process, during which the indican readily undergoes enzymatic hydrolysis and releases indoxyl that converts to indigo by oxidation upon exposure to air. […] On the contrary, a high concentration of reactants in solution is the key to minimize the storage tank size while obtaining high specific volumetric energy density. Therefore, the design of an appropriate electrolyte for AORFB starts from identifying redox-active materials followed by optimization of the structure to achieve the maximum solubility to maximize the energy density. […] In IC-H, the substituted protons are attached to the strongly electronegative oxygen atoms and capable of forming strong hydrogen bondings. Hydrogen bondings are usually stronger than the Van Der Wall forces and dipole interactions.

[2] = Rotating disk electrode linear sweep voltammetry (Levich and Tafel analysis); format: physicochemical
Excerpt: Further, the log (i0) can also be represented as FACOk0, where k0 is the electron transfer rate constant.

Structure (SMILES): CC1(C)CCCC(C)(C)N1[O] [TEMPO, 2,2,6,6-tetramethylpiperidine-1-oxyl, reference compound]
- redox potential (redox peaks) ([1]; acidic medium (0.1 M HClO4 where stated)): around 0.75 V vs. Ag/AgCl

Structure (SMILES): O=C1/C(=C2\Nc3ccc(S(=O)(=O)O)cc3C2=O)Nc2ccc(S(=O)(=O)O)cc21 [IC-H, 5,5′-indigodisulfonic acid]
- aqueous solubility (physchem): 760 mM (≈ 321 mg/mL)
- improvement in solubility (physchem): 22 folds
- electron transfer (reaction) rate constant ([2]; 1 mM in 0.1 M HClO4, fitted Tafel plot): 0.000282 cm/s
- diffusion coefficient ([2]; 1 mM in 0.1 M HClO4, slope of Levich plot): 2.232×10^−5 cm^2 s^−1 and 2.23×10^−5 cm^2 s^−1
- electron transfer rate constant k0 ([2]; LSV data at 2700 rpm, Tafel plot): 0.000282 cm/s
- chemical stability on CV cycling ([1]; 10,000 cycles at 40 mV s^−1): negligible decay
- redox peak separation ([1]; scan rates 5 mV s^−1 to 200 mV s^−1): 40 mV
